Measurements as given in ChEMBL document CHEMBL5608192, “Discovery and characterization of small-molecule TGR5 ligands with agonistic activity” (Eur J Med Chem, 2024).

Key:
[1] = Effect on CRE-luciferase activity in TGR5 non-expressing HEK293-A cells transfected with EPAC-based FRET biosensor assessed as fold activation at 30 uM incubated for 18 hrs by spectrophotometric analysis relative to control; type: functional, Homo sapiens
[2] = Effect on cAMP accumulation in non-TGR5 expressing HEK293-A cells transfected with EPAC-based FRET biosensor at 30 uM incubated for 10 mins in presence of IBMX and roflumilast by fluorescence based photometry relative to control; type: functional, Homo sapiens
[3] = target: T1, G-protein coupled bile acid receptor 1 (Homo sapiens) (UniProt Q8TDU6); assay: (§1) Agonist activity at human TGR5 expressed in HEK293-A cells co-transfected with EPAC-based FRET biosensor incubated for 18 hrs by CRE-luciferase reporter gene assay; type: functional, cell-based; conditions: filed as agonist
T1 sequence (whole entry): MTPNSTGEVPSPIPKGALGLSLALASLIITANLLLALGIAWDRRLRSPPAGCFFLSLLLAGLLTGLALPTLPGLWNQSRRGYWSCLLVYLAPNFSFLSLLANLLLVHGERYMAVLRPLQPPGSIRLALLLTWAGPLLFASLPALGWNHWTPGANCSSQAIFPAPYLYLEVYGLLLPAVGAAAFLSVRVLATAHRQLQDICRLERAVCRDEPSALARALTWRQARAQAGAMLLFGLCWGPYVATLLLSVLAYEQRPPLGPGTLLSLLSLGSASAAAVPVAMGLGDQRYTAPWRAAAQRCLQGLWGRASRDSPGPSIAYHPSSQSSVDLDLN

[4] = target: T2, G-protein coupled bile acid receptor 1 (Homo sapiens, UniProt Q8TDU6); assay: as §1; type: functional, cell-based
T2 sequence (Q8TDU6 whole entry): T1 sequence (whole entry)

[5] = target: T2, G-protein coupled bile acid receptor 1; assay: Agonist activity at human TGR5 expressed in HEK293-A cells co-transfected with EPAC-based FRET biosensor assessed as increase in cAMP accumulation incubated for 10 mins by spectrophotometry; type: functional, cell-based

Row | Activity [3] | EC50 [4] [µM] | EC50 [5] [µM] | SMILES | fold change (FC) [1] | Activity [2] [%]
1 | Dose-Dependent Effect | – | – | CO[C@@H](CNC(=O)CCc1cc2cc(Br)ccc2s1)Cc1ccccc1 | 0.75 | 106.4
2 | – | – | – | c1ccc(-n2cccc2CNC2CCCN(C3Cc4ccccc4C3)C2)nc1 (stereo not drawn) | 1.44 | 104
3 | – | – | – | c1cc(CNC2CC2)cc(-c2cccc3cccnc23)c1 | 1.22 | 105.3
4 | Dose-Dependent Effect | 19 | 30 | CC1(C)c2ccccc2CCN1CC(=O)NC[C@@H]1Cc2ccccc2O1 | 0.82 | 103.7
5 | Dose-Dependent Effect | – | – | CC(C)c1ccccc1OCCC(=O)NC[C@@H]1Cc2ccccc21 | 0.57 | 107.1
6 | – | – | – | Cc1cc(S(=O)(=O)NCCn2ccnc2C2CC2)c(Cl)cc1Cl | 0.96 | 103.9
7 | – | – | – | Cc1ccc(CCCNC(=O)NCc2cn3c(C)cccc3n2)c(C)c1 | 0.87 | –
